Conditions in all cases: compounds at ¼ MIC, EB 1 μg/mL, minute 30
The subject of one test is E. coli AG100 A. The test can be described thus: Real-time ethidium bromide accumulation (efflux pump inhibition). It counts as cell-based, Escherichia coli. As to the method:
(§1) Since multidrug resistance EPs are very important factors contributing to multidrug resistance (MDR) in both Gram-positive and Gram-negative bacteria, the inhibition of these pumps could reverse the resistant phenotype and restore the activity of antibiotics. The effect of compounds on ethidium bromide (EB) accumulation was determined by the automated EB method. This assay was used to determine how much of the fluorescent dye and pump substrate EB was accumulated by the bacterial cells in the presence of the tested compounds. The real-time accumulation of EB was monitored for 30 min in both S. aureus and E. coli strains.
(§2) The accumulation of the efflux pump substrate EB was monitored by the automated EB method using a LightCycler real-time thermocycler (LightCycler 1.5, Roche, Indianapolis, IN, USA). An aliquot of an overnight culture of the S. aureus strains in TSB medium was inoculated into fresh TSB medium, and it was incubated until it reached an optical density (OD) of 0.6 at 600 nm. In the case of E. coli strains, the medium applied in the assay was LB broth; the preparation of the inoculum was similar to the one of S. aureus. The cells were washed with phosphate buffered saline (PBS; pH 7.4) and centrifuged at 13,000 × g for 3 min, the pellets were re-suspended in PBS (pH 7.4), and the OD was calibrated to 0.6 at 600 nm. The compounds were measured at ¼ MIC concentration (in double-concentrated form) to the EB solution in PBS. The final concentration of EB was determined according to the MIC and the fluorescent signal produced by this amount of EB. In the case of all strains, the concentration of EB was 1 μg/mL. Then, 10 μL of the EB solution plus the compound were pipetted into standard glass capillary tubes of 20 µL maximum volume (Roche, Indianapolis, USA), and 10 μL of bacterial culture (OD of 0.6 at 600 nm) were transferred to the capillaries. The capillaries containing the samples were placed into the carousel, and the fluorescence was monitored at the FL-2 channel in every minute on a real-time basis.
(§3) Based on the data obtained, the relative fluorescence index (RFI) of the last time point (minute 30) was determined as follows:RFI = (RFtreated − RFuntreated)/RFuntreated(1) where RFtreated is the relative fluorescence (RF) at the last time point of the EB retention curve in the presence of an inhibitor, and RFuntreated is the relative fluorescence at the last time point of the EB retention curve of the untreated control having the solvent control (DMSO).

In a further test the test system is E. coli AG100. The test can be described thus: Real-time ethidium bromide accumulation (efflux pump inhibition, AcrAB-TolC). The test is classed as cell-based, Escherichia coli. As to the method:
as §1, §2, §3

Another test deals with S. aureus ATCC 25923. Briefly: Real-time ethidium bromide accumulation (efflux pump inhibition). The test is classed as cell-based, Staphylococcus aureus. As to the method:
as §1, §2, §3

Turning to `CN(C)CCCN1c2ccccc2Sc2ccc(Cl)cc21` [CPZ, Chlorpromazine, reference compound], the “Relative fluorescence index (RFI)” value in the test on E. coli AG100 A is on record as 0.48; with E. coli AG100, 0.38; in the test on S. aureus ATCC 25923 it was 0.17.

For the origin of these results see publication PMC7600679, “Benzoxazole-Based Metal Complexes to Reverse Multidrug Resistance in Bacteria” (Antibiotics, 2020).
